Measured values: a melting point compilation (Tetko et al.; mined from patent text by program, amines drawn as free bases though some values may be those of a salt)

melting point [°C]	SMILES
153	Cc1nn(C)c(=O)n1-c1ccc([N+](=O)[O-])cc1
122 to 123	N#CCc1cccc2c(-c3ccc(C(F)(F)F)cc3)nccc12
107	CCCc1nc(C#N)c(C#N)n1C(c1ccccc1)(c1ccccc1)c1ccccc1
170 to 171	O=C(O)c1ccc(F)nc1F
53	CCCCC[C@H]1CC[C@H](c2ccc(CC#N)cc2)CC1
73 to 74	Cc1cccc(C(=O)OC2CCCCC2=O)c1 (configuration not stated)
140 to 141	O=C(Nc1ccc(Oc2ccc(CCC(=O)N3CCN(Cc4ccc5c(c4)OCO5)CC3)cc2)nc1)c1ccc(C(F)(F)F)cc1
98 to 99.5	C#CCSc1ccc([N+](=O)[O-])cn1
129	COC1CCC(CCNC(=O)n2cc(F)c(=O)[nH]c2=O)CC1OC (configuration not stated)
104 to 105	N#Cc1ccc(OCc2cccc(F)c2)cc1
63 to 64	CCOC(=O)C(C(=O)OCC)(c1ccccc1)N1CCN(CCO)CC1
111 to 112	CC(=NOCC(N)=O)c1ccc(Cl)c(Cl)c1
108 to 109	N=C(Nc1ccc(C(F)(F)F)cc1)c1ccc(Cl)cc1Cl
134 to 136	COC(=O)Cn1c(Cc2ccccc2)ccc(N)c1=O
211 to 213	O=C(O)CCn1nc(-c2c(-c3ccccc3)nn3ccccc23)cc1O
226 to 227	CC(C)(Sc1ccc(-n2cncn2)nn1)C(O)(Cn1cncn1)c1ccc(F)cc1F (single isomer, unassigned; (+))
143 to 144	CC(C)(C)OC(=O)N1CCN(c2cccc3c2ccn3S(=O)(=O)c2ccccc2)CC1
47 to 48	CCC1=C(O)C(=O)CO1
200 to 201	CCCn1nc2c(NC)nc3ccccc3c2c1N
92 to 93	CCOC(=O)N1CCN(Cc2ccc(O)c3ncccc23)CC1
171 to 172	O=C(Nc1ccc(F)c(C(F)(F)F)c1)N1COc2cc(O)ccc21
90 to 91	COC(=O)c1cnnc2c(C)cccc12
74 to 77	COC(=O)CCc1ccc(OCCn2c(=O)sc3cc(C(=O)c4ccccc4)ccc32)cc1

melting point [°C]	SMILES
120 to 122	CC(C)c1cc(-c2ccccn2)c(-c2ccc(F)cc2)n1CCC=O
172	CC(OS(C)(=O)=O)C(C)n1ncn(-c2ccc(N3CCN(c4ccc(OCC5COC(Cn6cncn6)(c6ccc(F)cc6F)O5)cc4)CC3)cc2)c1=O (configuration not stated)
242 to 243	O=C(O)/C=C/c1ccc(Oc2c(-c3ccccc3)c(C3CC3)cc3cc(O)ccc23)cc1
168 to 172	CCCCN(CCCC)c1ccc(C=CC=CC=CC2=C(C#N)C(=C(C#N)C#N)OC2(C)C(F)(F)F)c(OC)c1 (configuration not stated)
97 to 100	CCC(C(=O)N(C)C)n1cc(Br)cn1 (configuration not stated)
158	CCCCCCCCCCC=Cc1cnn(C(C(=O)Nc2c(C(C)C)cccc2C(C)C)c2ccccc2)c1 (configuration not stated)
256 to 257	COC(=O)c1ccc2c3cccc4cccc(c5ccc(C(=O)OC)c1c25)c43
244 to 248	Nc1nc2ccccc2c2c1nc(CO)n2CC1(O)CCCCC1
68 to 70	O=S1(=O)CCC(c2ccc(N3CCN(CC(O)(Cn4cncn4)c4ccc(Cl)cc4Cl)CC3)cc2)CN1 (configuration not stated)
110 to 112	NC(=O)c1ncccc1OCCNCc1ccccc1
154	NCc1ccc2c(c1)nc(CN1C(=O)N(C3CC3)Cc3ccccc31)n2CCCC(F)(F)F
183	CC(=O)N[C@H]1CC[C@H](CCN2CCC(c3cccc4c3CCO4)CC2)CC1
110	CCON=C(C)C(C)=NOc1ncccc1C(=NOC)C(=O)NC
105 to 106	COC(=O)CNc1ccc2c(c1)OCO2
135 to 138	CC(C)(C)Nc1cc(NC(C)(C)C)nc(N2CCNCC2)n1
121 to 122	Oc1c2c(nn1-c1ccccn1)CCCC2
176 to 178	Cc1ccc2c(c1)C(O)(C1=CCN(C)CC1)CC2c1ccc(F)cc1 (configuration not stated)
158 to 160	COc1ccc(C2=NN(C3CCN(S(=O)(=O)c4cccc(C#N)c4)CC3)C(=O)C(C)(C)C2)cc1OC
161 to 162	Cc1c(-c2ccc(F)cc2)nc(-c2ccccc2)n1C(C)C
208 to 210	CC(=O)NC[C@H]1CN(c2ccc(N3CCC(n4cccc4)CC3)c(F)c2)C(=O)O1
176	COCCOc1ccc2ccc(N)nc2n1
159 to 160	Clc1ccccc1-c1n[nH]c(-c2ccccc2Cl)n1
> 300	CNc1nc2ccccc2n2cnnc12

melting point [°C]	SMILES
147 to 149	CCCCCS(=O)(=O)NC(=O)CCc1cc(OC(C)C)nn1Cc1ccc(C(F)(F)F)cc1Cl
220 to 222	CS(=O)(=O)N1CCC(Nc2nc(Cl)nc(Nc3cccc(C(F)(F)F)c3)n2)CC1
157 to 160	O=C1OC(O)c2ccc([N+](=O)[O-])cc21 (configuration not stated)
114 to 115	CC1(C)COC(c2ccc(F)cc2-c2ccc3c(c2)CCC(Cc2ccccc2)C3=O)=N1 (configuration not stated)
219	CC(C)(C)OC(=O)N1CCC(c2ncc(-c3cnc(-c4ccccc4)nc3)[nH]2)C1 (configuration not stated)
93 to 94	COc1ccc(C=Cc2cccc(C(=O)O)c2)cc1OC1CCCC1
188 to 191	Cc1cc(C2=NN=C(C=O)Cc3cc4c(cc32)OCO4)ccc1[N+](=O)[O-]
178 to 179	CCCCNC(=O)ONC(=O)Cc1ccc2c(C(=O)OCC)c(N)c(C(=O)OCC)c-2cc1
102	CCOC(=O)C1C(C)=NC(N2CCCC2)=C(C(=O)OC(C)C)C1c1ccccc1C(F)(F)F (configuration not stated)
180 to 182	CCOC(=O)c1ccc(OCC)c(-c2ncc(C(=O)OCC)c(=O)[nH]2)c1
123 to 124	CC(C)c1c2n(c(=O)c3ccccc13)CCCS2
210 to 214	Oc1ccc(-c2cc3c(Cl)c(O)ccc3o2)cc1
176	CC(SC1COC(c2ccc(C(=O)Nc3ccc(C#N)cc3)cc2)OC1)C(O)(Cn1cncn1)c1ccc(F)cc1F (configuration not stated)
87 to 90	CC1(C)CCC(Cc2ccc(Cl)cc2)=CC1=O
128 to 132	CNC(=S)C(CN1CCOCC1)(OC)c1ccccn1 (configuration not stated)
> 350	NNC(=O)Nc1ccc(-n2ncn(-c3ccc(OCC(F)(F)C(F)F)cc3)c2=O)cc1
145	COc1cc(C=O)ccc1NC(C)=O
224 to 225	Cc1cccc2sc(-n3nc4c(c3O)-c3ccccc3CC4)nc12
138 to 140	CCCc1ccc(N2CCC(O)CC2)nn1
111 to 113	C=C(OCC)c1c(C)nc(C)nc1NCc1ccc(Br)cc1
92 to 93	CCCc1c(OCc2ccc(C(=O)NCCCCc3cccnc3)c(OCC)c2)ccc(C(C)=O)c1O
160	CC(C)c1nc(C(C)C)c(CCCC(=O)O)c(-c2ccc(F)cc2)c1CO
129 to 132	CCCCCCCCOC(=S)c1cc(C(C)(C)C)c(OC(=O)c2cc(C(C)(C)C)c(O)c(C(C)(C)C)c2)c(C(C)(C)C)c1

SMILES	melting point [°C]
CC(C)C(C(=O)O)c1ccc(Cl)cc1 (configuration not stated)	88 to 89
CC(N)Cc1cccc(N)c1 (configuration not stated)	78 to 79
NCC(O)c1ccc([N+](=O)[O-])cc1 (configuration not stated)	138 to 139
